IC50 and Ki data for 12 molecules are collected here from ChEMBL document CHEMBL1909046, “DrugMatrix in vitro pharmacology data”.

Assay [1] concerns the target T1, Alpha-2A adrenergic receptor (Homo sapiens, UniProt P08913). Also: in other assays of this panel Not Active means under 50% inhibition at 10 µM.
T1 sequence (P08913 whole entry): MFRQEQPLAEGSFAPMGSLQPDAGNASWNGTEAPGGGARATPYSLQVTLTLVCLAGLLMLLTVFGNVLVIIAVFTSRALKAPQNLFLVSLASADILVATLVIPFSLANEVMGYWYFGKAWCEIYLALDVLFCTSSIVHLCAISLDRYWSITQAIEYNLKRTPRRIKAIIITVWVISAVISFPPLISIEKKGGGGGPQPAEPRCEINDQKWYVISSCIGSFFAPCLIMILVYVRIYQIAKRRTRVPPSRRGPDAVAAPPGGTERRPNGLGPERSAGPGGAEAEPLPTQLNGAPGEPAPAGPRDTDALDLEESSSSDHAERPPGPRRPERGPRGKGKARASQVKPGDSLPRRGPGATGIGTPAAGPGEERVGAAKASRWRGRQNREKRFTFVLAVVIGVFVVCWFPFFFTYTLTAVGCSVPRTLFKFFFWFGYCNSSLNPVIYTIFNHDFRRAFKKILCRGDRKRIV
The assay is classed as cell membranes, Sf9, Membrane.

Assay [2] deals with T2, Type-2 angiotensin II receptor (Homo sapiens, UniProt P50052).
T2 sequence (P50052 whole entry): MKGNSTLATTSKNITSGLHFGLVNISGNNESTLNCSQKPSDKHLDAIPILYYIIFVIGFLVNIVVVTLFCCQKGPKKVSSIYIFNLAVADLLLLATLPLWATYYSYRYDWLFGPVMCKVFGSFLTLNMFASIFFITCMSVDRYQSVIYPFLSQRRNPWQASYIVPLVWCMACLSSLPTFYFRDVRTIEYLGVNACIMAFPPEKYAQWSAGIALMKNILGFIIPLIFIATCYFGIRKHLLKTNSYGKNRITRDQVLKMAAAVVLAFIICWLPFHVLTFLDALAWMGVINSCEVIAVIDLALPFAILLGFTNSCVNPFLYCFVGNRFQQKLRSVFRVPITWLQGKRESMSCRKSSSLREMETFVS
In words: biochemical. As to conditions: cho-k1. Format: cell-based, CHO-K1.

Assay [3] can be described thus: DRUGMATRIX: Atrial Natriuretic Factor (ANF) radioligand binding (ligand: [125I] ANF (rat)). The assay is classed as cell membranes, Cavia porcellus, Dunkin-Hartley, Adrenal gland, Membrane. The note with it: Not Active = under 50% inhibition at 10 µM.
Assay [4] has as its target Vascular endothelial growth factor receptor 1 (Homo sapiens, UniProt P17948). Format: cell-based. The note with it: huvec. Also: in other assays of this panel Not Active means under 50% inhibition at 10 µM.
Assay [5] concerns the target Vasopressin V1a receptor (Homo sapiens, UniProt P37288). The assay is classed as cell membranes, Membrane. As to conditions: hek293. Also: in other assays of this panel Not Active means under 50% inhibition at 10 µM.
The nature of assay [6]: DRUGMATRIX: Glutamate, Kainate radioligand binding (ligand: [3H] Kainic acid). Format: cell membranes, Rattus norvegicus, Wistar, Brain, Membrane. As to conditions: Not Active = under 50% inhibition at 10 µM.
Assay [7] deals with T3, Nitric oxide synthase, inducible (Mus musculus, UniProt P29477).
T3 sequence (P29477 whole entry): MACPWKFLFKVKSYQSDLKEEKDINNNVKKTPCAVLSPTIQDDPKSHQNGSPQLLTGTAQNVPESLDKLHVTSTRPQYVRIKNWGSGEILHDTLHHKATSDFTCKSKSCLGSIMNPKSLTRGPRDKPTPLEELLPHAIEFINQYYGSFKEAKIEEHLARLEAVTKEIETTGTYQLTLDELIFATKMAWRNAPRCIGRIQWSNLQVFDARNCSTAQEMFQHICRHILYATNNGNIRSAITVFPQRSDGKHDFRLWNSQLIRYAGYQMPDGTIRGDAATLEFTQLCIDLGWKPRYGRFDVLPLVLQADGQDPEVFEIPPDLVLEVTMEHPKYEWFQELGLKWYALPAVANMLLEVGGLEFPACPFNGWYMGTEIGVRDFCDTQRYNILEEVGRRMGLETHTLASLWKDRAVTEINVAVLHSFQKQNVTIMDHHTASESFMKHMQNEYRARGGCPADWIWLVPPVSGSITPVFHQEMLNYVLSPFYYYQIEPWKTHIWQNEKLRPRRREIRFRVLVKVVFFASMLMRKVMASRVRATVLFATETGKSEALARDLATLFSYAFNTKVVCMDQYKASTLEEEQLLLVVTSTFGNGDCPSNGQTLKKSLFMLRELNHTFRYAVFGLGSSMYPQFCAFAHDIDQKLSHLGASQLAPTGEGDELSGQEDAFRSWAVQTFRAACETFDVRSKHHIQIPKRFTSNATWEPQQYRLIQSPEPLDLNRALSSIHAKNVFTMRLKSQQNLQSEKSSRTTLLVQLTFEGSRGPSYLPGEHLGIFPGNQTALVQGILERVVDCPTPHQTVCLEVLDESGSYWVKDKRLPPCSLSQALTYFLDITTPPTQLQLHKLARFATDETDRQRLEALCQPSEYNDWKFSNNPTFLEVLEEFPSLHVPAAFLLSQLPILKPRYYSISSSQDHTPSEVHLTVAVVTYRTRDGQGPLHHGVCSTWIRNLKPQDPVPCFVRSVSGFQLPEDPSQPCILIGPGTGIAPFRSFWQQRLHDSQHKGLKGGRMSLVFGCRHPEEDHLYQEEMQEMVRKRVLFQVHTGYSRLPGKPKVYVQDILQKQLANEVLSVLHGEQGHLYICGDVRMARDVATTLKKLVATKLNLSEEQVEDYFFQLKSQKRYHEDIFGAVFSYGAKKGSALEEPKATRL
Also noted: species or system Escherichia coli.

Assay [8] in a line: DRUGMATRIX: Phorbol Ester radioligand binding (ligand: [3H] PDBu). Format: cell membranes, Mus musculus, ICR, Brain, Membrane. The note with it: Not Active = under 50% inhibition at 10 µM.

Chain of Vasopressin V1a receptor (P37288 whole entry): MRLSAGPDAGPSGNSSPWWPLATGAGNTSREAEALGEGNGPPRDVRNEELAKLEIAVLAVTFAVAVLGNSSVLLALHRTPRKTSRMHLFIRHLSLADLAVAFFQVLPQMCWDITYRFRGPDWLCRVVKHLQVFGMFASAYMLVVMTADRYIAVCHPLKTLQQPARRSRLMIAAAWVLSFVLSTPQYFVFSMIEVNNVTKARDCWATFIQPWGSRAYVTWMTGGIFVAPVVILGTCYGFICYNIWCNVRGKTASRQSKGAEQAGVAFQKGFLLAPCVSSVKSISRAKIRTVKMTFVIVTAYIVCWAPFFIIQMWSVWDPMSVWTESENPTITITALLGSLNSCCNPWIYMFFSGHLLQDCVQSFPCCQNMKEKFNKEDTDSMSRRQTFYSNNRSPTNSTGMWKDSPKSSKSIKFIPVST
Chain of Vascular endothelial growth factor receptor 1 (P17948 whole entry): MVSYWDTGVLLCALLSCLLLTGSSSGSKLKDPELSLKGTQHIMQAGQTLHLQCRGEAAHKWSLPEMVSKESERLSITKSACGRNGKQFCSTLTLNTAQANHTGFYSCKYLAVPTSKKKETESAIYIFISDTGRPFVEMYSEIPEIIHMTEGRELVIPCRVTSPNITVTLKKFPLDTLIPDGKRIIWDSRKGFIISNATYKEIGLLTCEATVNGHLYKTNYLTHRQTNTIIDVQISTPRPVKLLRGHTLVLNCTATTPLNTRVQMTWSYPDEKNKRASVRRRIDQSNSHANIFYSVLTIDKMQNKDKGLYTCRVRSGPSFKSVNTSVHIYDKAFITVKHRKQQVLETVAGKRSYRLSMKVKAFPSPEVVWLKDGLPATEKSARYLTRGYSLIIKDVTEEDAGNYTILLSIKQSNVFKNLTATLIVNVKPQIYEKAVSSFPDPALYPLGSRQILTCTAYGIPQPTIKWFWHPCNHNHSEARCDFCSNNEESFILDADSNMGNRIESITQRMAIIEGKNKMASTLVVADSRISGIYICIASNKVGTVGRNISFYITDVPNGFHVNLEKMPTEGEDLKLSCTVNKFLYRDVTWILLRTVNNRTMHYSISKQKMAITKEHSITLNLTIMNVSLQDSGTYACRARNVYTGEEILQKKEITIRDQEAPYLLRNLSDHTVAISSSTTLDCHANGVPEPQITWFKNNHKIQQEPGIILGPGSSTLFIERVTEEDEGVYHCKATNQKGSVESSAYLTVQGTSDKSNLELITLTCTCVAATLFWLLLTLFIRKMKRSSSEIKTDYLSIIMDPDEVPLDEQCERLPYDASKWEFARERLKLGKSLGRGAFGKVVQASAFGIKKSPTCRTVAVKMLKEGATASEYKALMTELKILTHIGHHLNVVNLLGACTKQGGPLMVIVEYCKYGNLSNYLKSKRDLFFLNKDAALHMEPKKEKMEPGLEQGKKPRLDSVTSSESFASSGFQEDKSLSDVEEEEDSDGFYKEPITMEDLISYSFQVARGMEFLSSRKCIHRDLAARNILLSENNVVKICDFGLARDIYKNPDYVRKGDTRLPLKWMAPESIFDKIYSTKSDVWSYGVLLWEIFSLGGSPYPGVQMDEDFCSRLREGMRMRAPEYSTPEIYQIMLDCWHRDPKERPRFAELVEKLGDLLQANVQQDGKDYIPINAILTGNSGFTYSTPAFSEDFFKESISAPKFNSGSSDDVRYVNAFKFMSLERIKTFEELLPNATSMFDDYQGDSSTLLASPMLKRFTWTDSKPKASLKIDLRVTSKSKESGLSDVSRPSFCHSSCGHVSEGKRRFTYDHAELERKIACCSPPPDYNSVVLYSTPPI

`C[C@H]1COc2c(N3CCN(C)CC3)c(F)cc3c(=O)c(C(=O)O)cn1c23.C[C@H]1COc2c(N3CCN(C)CC3)c(F)cc3c(=O)c(C(=O)O)cn1c23.O` [LEVOFLOXACIN]: the IC50 result in assay [1] (sf9), in assay [2], in assay [3], in assay [4], in assay [5] and in assay [6] was “Not Active” throughout. Further, the IC50 entry in assay [7] and in assay [8] was “Not Active” in each case. Besides, the Ki result in assay [3], in assay [6] and in assay [8] was “Not Active” throughout.
For the molecule `CCn1cc(C(=O)O)c(=O)c2cc(F)c(N3CCNC(C)C3)c(F)c21` (stereo not drawn) [LOMEFLOXACIN], the IC50 result in assay [1] (sf9), in assay [2], in assay [3], in assay [4], in assay [5] and in assay [6] was “Not Active” throughout. The IC50 entry in assay [7] and in assay [8] was “Not Active” in each case. Also, the Ki entry in assay [3], in assay [6] and in assay [8] was “Not Active” in each case.
For the molecule `CN1CCCC(CN2c3ccccc3Sc3ccccc32)C1` (stereo not drawn) [MEPAZINE], the IC50 was 1.46 µM in assay [1] (read-out: IC50); “Not Active” in assay [2]; “Not Active” in assay [3]; “Not Active” in assay [4]; “Not Active” in assay [5]; “Not Active” in assay [6]. Also, the IC50 result in assay [7] and in assay [8] was “Not Active” throughout. The Ki in assay [1] (read-out: Ki) is 0.546 µM; in assay [3], “Not Active”; in assay [6] it was “Not Active”; in assay [8], “Not Active”.
On to `Cc1cccc(C)c1NC(=O)C1CCCCN1C` (stereo not drawn) [MEPIVACAINE], for which the IC50 entry in assay [1] (sf9), in assay [2], in assay [3], in assay [4], in assay [5] and in assay [6] was “Not Active” each time. In addition, the IC50 result in assay [7] and in assay [8] was “Not Active” in each case. Further, the Ki result in assay [3], in assay [6] and in assay [8] was “Not Active” throughout.
For `CN(C)C(=N)NC(=N)N` [METFORMIN], the IC50 entry in assay [1] (sf9), in assay [2], in assay [3], in assay [4], in assay [5] and in assay [6] was “Not Active” in each case. The IC50 result in assay [7] and in assay [8] was “Not Active” in each case. In addition, the Ki result in assay [3], in assay [6] and in assay [8] was “Not Active” throughout.
With `CC(C)(C)NCC(O)COc1cccc2c1CC(O)C(O)C2` (stereo not drawn) [NADOLOL], the IC50 result in assay [1] (sf9), in assay [2], in assay [3], in assay [4], in assay [5] and in assay [6] was “Not Active” in each case. For the same molecule, the 50% inhibitory concentration (IC50) entry in assay [7] and in assay [8] was “Not Active” throughout. The Ki result in assay [3], in assay [6] and in assay [8] was “Not Active” in each case.
For `C[C@]12CC[C@H]3[C@@H](CCC4=CC(=O)CC[C@@H]43)[C@@H]1CC[C@@H]2O` [NANDROLONE], the IC50 entry in assay [1] (sf9), in assay [2], in assay [3], in assay [4], in assay [5] and in assay [6] was “Not Active” in each case. Further, the IC50 result in assay [7] and in assay [8] was “Not Active” throughout. Also, the Ki entry in assay [3], in assay [6] and in assay [8] was “Not Active” in each case.
For the molecule `C[C@@H]1C/C=C/C=C/C=C/C=C/[C@H](O[C@@H]2O[C@H](C)[C@@H](O)[C@H](N)[C@@H]2O)C[C@@H]2O[C@](O)(C[C@@H](O)C[C@H]3O[C@@H]3/C=C/C(=O)O1)C[C@H](O)[C@H]2C(=O)O` [NATAMYCIN], the IC50 result in assay [1] (sf9), in assay [2], in assay [3], in assay [4], in assay [5] and in assay [6] was “Not Active” throughout. Moreover, the IC50 result in assay [7] and in assay [8] was “Not Active” throughout. Besides, the Ki entry in assay [3], in assay [6] and in assay [8] was “Not Active” each time.
Consider `CN(C)C(=O)Oc1cccc([N+](C)(C)C)c1.[Br-]` [NEOSTIGMINE BROMIDE], for which the IC50 result in assay [1] (sf9), in assay [2], in assay [3], in assay [4], in assay [5] and in assay [6] was “Not Active” each time. For the same molecule, the concentration for half-maximal inhibition (IC50) entry in assay [7] and in assay [8] was “Not Active” in each case. Besides, the Ki result in assay [3], in assay [6] and in assay [8] was “Not Active” throughout.
For the molecule `NC(=O)c1cccnc1` [NIACINAMIDE], the IC50 entry in assay [1] (sf9), in assay [2], in assay [3], in assay [4], in assay [5] and in assay [6] was “Not Active” throughout. The IC50 result in assay [7] and in assay [8] was “Not Active” in each case. The Ki entry in assay [3], in assay [6] and in assay [8] was “Not Active” each time.
`CS(=O)(=O)Nc1ccc([N+](=O)[O-])cc1Oc1ccccc1` [NIMESULIDE]: the IC50 result in assay [1] (sf9), in assay [2], in assay [3], in assay [4], in assay [5] and in assay [6] was “Not Active” throughout. Also, the IC50 result in assay [7] and in assay [8] was “Not Active” each time. Further, the Ki result in assay [3], in assay [6] and in assay [8] was “Not Active” throughout.
Regarding `CN1C(=O)CN=C(c2ccccc2)c2cc([N+](=O)[O-])ccc21` [NIMETAZEPAM], the IC50 result in assay [1] (sf9), in assay [2], in assay [3], in assay [4], in assay [5] and in assay [6] was “Not Active” each time. Besides, the IC50 result in assay [7] and in assay [8] was “Not Active” throughout. Also, the Ki result in assay [3], in assay [6] and in assay [8] was “Not Active” in each case.
